Experimental data as given in patent US10434190B2, “Pre-and-intra-operative localization of penile sentinel nodes” (NOVADAQ TECHNOLOGIES ULC, priority 2006, dated 2019).
“Also recorded” adds a separate entry of the source.

Assays:
[1] = system: mammals; details: cited from earlier work; for neuronal toxicity: several months after the treatment
[2] = system: male Sprague-Dawley rats; assay: Near infrared fluorescence (NIRF) imaging of lymph nodes after penile intracavernous ICG injection; format: in vivo, rat
Description: Twenty two 22 male Sprague-Dawley rats received penile intracavernous ICG injections (20 μl of 0.25 mg/ml). […] A Novadaq intraoperative NIRF imaging system (SPY®) was used for macroscopic fluorescence imaging and an Olympus NIRF microscope IX 70 (Olympus America, Inc., Center Valley, Pa.) was used for histology. All animals were anesthetized and shaved before imaging. All visualized nodes were sent for NIR microscopy and haematoxylin and eosin (H&E) staining for histological examination.
More than one pair of sentinel lymph nodes were visualized in 2 rats. […] Lymphatic channels were seen leading to sentinel lymph nodes at 6, 12 and 24 hours (FIG. 1). […] (FIG. 1). […] Thus, NIR fluorescence using ICG facilitates both pre- and intraoperative identification of the first site of penile lymphatic drainage. The methods of the invention should therefore improve the accuracy of surgical staging in patients with penile carcinomas.

[3] = cited from earlier work
[4] = 806 nm excitation light; cited from earlier work

For Fast Blue, the toxicity in mammals [1] is listed as “low evidence of toxicity” and the neuronal toxicity [1] is listed as “without evidence of neuronal toxicity”.

With CC1(C)C(/C=C/C=C/C=C/C=C2\N(CCCCS(=O)(=O)O)c3ccc4ccccc4c3C2(C)C)=[N+](CCCCS(=O)(=O)[O-])c2ccc3ccccc3c21 [ICG, indocyanine green] the “lymphatic channels leading to sentinel lymph nodes” value ([2]; 6, 12 and 24 hours post-injection) was “seen”, the “how long lymph nodes could be seen through the body wall after injection” value ([2]; animal studies) was “for days” and the “confirmation of lymph nodes by NIR microscopy and conventional histology” value ([2]; rats) was “All lymph nodes were confirmed”. For the same compound, the “visualization of inguinal and iliac sentinel lymph nodes with NIRF” value ([2]; rats) was “clearly visualized”, the “intraoperative confirmation of preoperative localization of inguinal nodes” value ([2]; rats, intraoperative NIRF) was “confirmed the preoperative localization of the inguinal nodes; also recorded: confirmed preoperative localization of all inguinal nodes” and the enterohepatic recirculation ([3]; in vivo) was “does not undergo enterohepatic recirculation”. The “metabolism in the body” value ([3]; in vivo) was “not metabolized”, the “reabsorption from the intestine” value ([3]; in vivo) was “not reabsorbed” and the route of excretion ([3]; in vivo) was “excreted exclusively by the liver”. For the same compound, the “distribution after intravenous injection” value ([3]; normal vascular permeability) was “remains intravascular”, the emitted light wavelength [4] was 830 nm and the toxicity in mammals [1] was “low evidence of toxicity”. For the same compound, the neuronal toxicity [1] was “without evidence of neuronal toxicity”.

For CC1(C)C(/C=C/C=C/C=C/C=C2\N(CCCCS(=O)(=O)[O-])c3ccc4ccccc4c3C2(C)C)=[N+](CCCCS(=O)(=O)[O-])c2ccc3ccccc3c21.[Na+] [indocyanine green (ICG)], the “shortest time after injection to ability to visualize the lymph nodes” value ([2]; animal model) was 10 min.

In the case of N=C(N)c1ccc(/C=C/c2ccc(C(=N)N)cc2O)cc1 [Fluorogold], the toxicity in mammals [1] is listed as “low evidence of toxicity” and the neuronal toxicity [1] is listed as “without evidence of neuronal toxicity”.
